Earlier results in patent US20230346789A1, “METHODS OF TREATING ENHANCING BRAIN TUMORS USING COMBINATION THERAPY” (MSD International GmbH, priority 2022, published 2023).
Like-named read-outs stand apart in the source and are kept apart here.

Tests used:
[1] = test system: Recurrent or Progressive Glioma; conditions: monotherapy

Row | Compound | preclinical safety profile | clinical efficacy ([1]; patients with non-enhancing gliomas) | clinical efficacy ([1]; patients with recurrent enhancing gliomas)
1 | pembrolizumab: humanized immunoglobulin G4 (IgG4) monoclonal antibody blocking the programmed death receptor-1 (PD1) | acceptable |  | 
2 | C[C@@H](Nc1nc(N[C@H](C)C(F)(F)F)nc(-c2cccc(Cl)n2)n1)C(F)(F)F [vorasidenib, 6-(6-chloropyridin-2-yl)-N^2,N^4-bis((R)-1,1,1-trifluoropropan-2-yl)-1,3,5-triazine-2,4-diamine] |  | clinical activity and prolonged disease control | only limited efficacy
